{
  "source": "paper PMC6740193",
  "about": "(ACS Omega, 2019)",
  "biological_target": "T1, 1-deoxy-D-xylulose-5-phosphate reductoisomerase (DXR) (Escherichia coli, UniProt P45568)",
  "T1 sequence (P45568 1-398)": "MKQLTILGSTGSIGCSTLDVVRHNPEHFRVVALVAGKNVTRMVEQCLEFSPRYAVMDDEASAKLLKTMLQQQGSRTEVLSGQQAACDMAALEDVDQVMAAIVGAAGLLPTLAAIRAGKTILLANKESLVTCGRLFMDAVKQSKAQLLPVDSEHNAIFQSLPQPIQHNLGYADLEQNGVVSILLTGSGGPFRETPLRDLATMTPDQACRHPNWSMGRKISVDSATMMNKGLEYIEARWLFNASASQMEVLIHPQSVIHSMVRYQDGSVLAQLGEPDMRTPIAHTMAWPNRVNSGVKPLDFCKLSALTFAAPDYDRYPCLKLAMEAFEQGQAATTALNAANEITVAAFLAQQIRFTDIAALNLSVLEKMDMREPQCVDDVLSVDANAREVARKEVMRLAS",
  "assay": "recombinant enzyme assay, NADPH consumption at […] nm",
  "type": "biochemical",
  "data": [
    {"smiles": "O=P(O)(O)CCCB(O)O", "note": "[compound 4, 3-Borono Propyl Phosphonic Acid]", "values": [
      {"measurement": "IC50", "result": "128 ± 3", "unit": "µM"}
    ]}
  ]
}
